Assay results published in article PMC11676667, “Pharmacokinetics of Oral Cannabinoid Δ8-Tetrahydrocannabivarin and Its Main Metabolites in Healthy Participants” (Pharmaceuticals, 2024).
Where two headings read alike, the source gives them in different places.

Experiment: Plasma pharmacokinetics after single oral dose of Δ8-THCV in MCT oil (LC-MS/MS, non-compartmental analysis)
Type: in vivo, human
Set-up: Clast (last quantifiable concentration): unit not given here
Settings: for Clast (last quantifiable concentration) / tlast (time to last quantifiable concentration) / concentration at 0.5 h / concentration at 1 h / concentration at 2 h / concentration at 4 h / concentration at 6 h / concentration at 8 h / AUC(0-t) / Cmax / MRT / Tmax: plasma; for plasma concentration: Predose; for concentration at 0.5 h / concentration at 1 h / concentration at 2 h / concentration at 4 h / concentration at 6 h / concentration at 8 h / AUC(0-t) / Cmax / MRT / Tmax: human; for concentration at 0.5 h / concentration at 1 h / concentration at 2 h / concentration at 4 h / concentration at 6 h / concentration at 8 h: oral; for AUC(0-t) / Cmax / MRT / Tmax: po; for MRT: read-out: MRT (mean residence time); for Tmax: read-out: tmax
Method: The study was a two-phase, dose-ranging, placebo-controlled trial in 21 healthy participants to assess the safety, tolerability, PK, and PD of an oral formulation of Δ8-THCV. A detailed description of the study was published elsewhere. The study product was a medium-chain triglyceride (MCT) oil oral formulation of Δ8-THCV at a concentration of 50 mg/mL. […] MCT oil was used as placebo.
Twenty-one participants were enrolled in the clinical study and plasma samples from 15 participants were sent to our laboratory for pharmacokinetic evaluation. Of these, 3 participants were enrolled in Phase 1, an unblinded, placebo-controlled, single ascending dose design and 12 were enrolled in Phase 2, a double-blind, randomized, placebo-controlled, within-participant crossover design. At each study session, participants received one of the following oral doses: placebo, 12.5 mg, 25 mg, 50 mg, 100 mg, and 200 mg of the aforementioned Δ8-THCV formulation in MCT. Study visits were separated by a washout period of a minimum of one week and maximum of 28 days. Participants entered the research facility the night before the session and received the study product in the morning after a standardized high-fat, high-calorie breakfast. PK blood samples included in this analysis were collected prior to dosing and 0.5, 1, 2, 4, 6, and 8 h after dose. Immediately following collection into K2EDTA tubes, blood samples were placed on wet ice, centrifuged, and plasma was immediately frozen at −80 °C until shipment to the bioanalytical laboratory (iC42 Clinical Research and Development, University of Colorado, Aurora, CO, USA) on dry ice.
Plasma samples were analyzed using a validated high-performance liquid chromatography–tandem mass spectrometry (LC-MS/MS) assay. The assay included Δ8-THCV and its main metabolites 11-OH-Δ8-THCV and Δ8-THCV-COOH, Δ9-THCV and its main metabolite Δ9-THCV-COOH, and Δ9-THC and Δ8-THC as well as their main metabolites (Figure 3). The complete list of analyzed compounds and a summary of the key performance parameters of the assay are presented in Appendix A and Table A1 and Table A2. […] For the PK analysis, concentrations below the lower limit of quantification were set to 0 ng/mL. PK parameters were calculated using non-compartmental analysis (Phoenix WinNonlin version 8.4., Certara, Princeton, NJ, USA). Statistical analysis was carried out using GraphPad Prism (version 10, Boston, MA, USA).

[1] = 100 mg single oral Δ8-THCV in MCT oil, Mean (±SD)
[2] = 100 mg single oral Δ8-THCV in MCT oil, Median (Range)
[3] = 200 mg single oral Δ8-THCV in MCT oil, Mean (±SD)
[4] = 200 mg single oral Δ8-THCV in MCT oil, Median (Range)
[5] = 12.5 mg, 12.5 mg Δ8-THCV dose, Mean (SD, %CV)
[6] = 12.5 mg, 12.5 mg Δ8-THCV dose, Median (IQ Range)
[7] = 25 mg, 25 mg Δ8-THCV dose, Mean (SD, %CV)
[8] = 25 mg, 25 mg Δ8-THCV dose, Median (IQ Range)
[9] = 50 mg, 50 mg Δ8-THCV dose, Mean (SD, %CV)
[10] = 50 mg, 50 mg Δ8-THCV dose, Median (IQ Range)
[11] = 100 mg, 100 mg Δ8-THCV dose, Mean (SD, %CV)
[12] = 100 mg, 100 mg Δ8-THCV dose, Median (IQ Range)
[13] = 200 mg, 200 mg Δ8-THCV dose, Mean (SD, %CV)
[14] = 200 mg, 200 mg Δ8-THCV dose, Median (IQ Range)
[15] = 100 mg, 100 mg single oral Δ8-THCV in MCT oil, Mean (±SD)
[16] = 100 mg, 100 mg single oral Δ8-THCV in MCT oil, Median (Range)
[17] = 200 mg, 200 mg single oral Δ8-THCV in MCT oil, Mean (±SD)
[18] = 200 mg, 200 mg single oral Δ8-THCV in MCT oil, Median (Range)

With `CCCCCc1cc(O)c2c(c1)OC(C)(C)[C@@H]1CC=C(C(=O)O)CC21` (single isomer, unassigned; (+)) [Δ8-THC-COOH, (+)-11-nor-Δ8-THC-9-carboxylic acid] the “Clast (last quantifiable concentration)” value [1] was 1.3 (±0.2), the “tlast (time to last quantifiable concentration)” value (“tlast” for short) [1] was 5.8 (±1.3) and the “Clast (last quantifiable concentration)” value [2] was 1.3 (1–1.7). For the same compound, the “tlast” value [2] was 6 (4–8), the “Clast (last quantifiable concentration)” value [3] was 1.9 (±0.6) and the “tlast” value [3] was 7.5 (±1.2). The “Clast (last quantifiable concentration)” value [4] was 1.8 (1.1–2.8), the “tlast” value [4] was 8 (4–8) and the plasma concentration (12.5 mg Δ8-THCV dose, Mean (SD, %CV)) was 0 (±0, --) ng/mL. The plasma concentration (12.5 mg Δ8-THCV dose, Median (IQ Range)) was 0 (0–0) ng/mL, the plasma concentration (25 mg Δ8-THCV dose, Mean (SD, %CV)) was 0 (±0, --) ng/mL and the plasma concentration (25 mg Δ8-THCV dose, Median (IQ Range)) was 0 (0–0) ng/mL. The plasma concentration (50 mg Δ8-THCV dose, Mean (SD, %CV)) was 0 (±0, --) ng/mL, the plasma concentration (50 mg Δ8-THCV dose, Median (IQ Range)) was 0 (0–0) ng/mL and the plasma concentration (100 mg Δ8-THCV dose, Mean (SD, %CV)) was 0 (±0, --) ng/mL. The plasma concentration (100 mg Δ8-THCV dose, Median (IQ Range)) was 0 (0–0) ng/mL, the plasma concentration (200 mg Δ8-THCV dose, Mean (SD, %CV)) was 0 (±0, --) ng/mL and the plasma concentration (200 mg Δ8-THCV dose, Median (IQ Range)) was 0 (0–0) ng/mL. It also gave a concentration at 0.5 h [5] of 0 ng/mL, a concentration at 0.5 h [6] of 0 ng/mL and a concentration at 1 h [5] of 0 ng/mL. It also gave a concentration at 1 h [6] of 0 ng/mL, a concentration at 2 h [5] of 0 ng/mL and a concentration at 2 h [6] of 0 ng/mL. For the same compound, the concentration at 4 h [5] was 0 ng/mL, the concentration at 4 h [6] was 0 ng/mL and the concentration at 6 h [5] was 0 ng/mL. It also gave a concentration at 6 h [6] of 0 ng/mL, a concentration at 8 h [5] of 0 ng/mL and a concentration at 8 h [6] of 0 ng/mL. For the same compound, the concentration at 0.5 h [7] was 0 ng/mL, the concentration at 0.5 h [8] was 0 ng/mL and the concentration at 1 h [7] was 0 ng/mL. It also gave a concentration at 1 h [8] of 0 ng/mL, a concentration at 2 h [7] of 0 ng/mL and a concentration at 2 h [8] of 0 ng/mL. It also gave a concentration at 4 h [7] of 0 ng/mL, a concentration at 4 h [8] of 0 ng/mL and a concentration at 6 h [7] of 0 ng/mL. The concentration at 6 h [8] was 0 ng/mL, the concentration at 8 h [7] was 0 ng/mL and the concentration at 8 h [8] was 0 ng/mL. For the same compound, the concentration at 0.5 h [9] was 0 ng/mL, the concentration at 0.5 h [10] was 0 ng/mL and the concentration at 1 h [9] was 0 ng/mL. For the same compound, the concentration at 1 h [10] was 0 ng/mL, the concentration at 2 h [9] was 0 ng/mL and the concentration at 2 h [10] was 0 ng/mL. The concentration at 4 h [9] was 0 ng/mL, the concentration at 4 h [10] was 0 ng/mL and the concentration at 6 h [9] was 0 ng/mL. It also gave a concentration at 6 h [10] of 0 ng/mL, a concentration at 8 h [9] of 0 ng/mL and a concentration at 8 h [10] of 0 ng/mL. The concentration at 0.5 h [11] was 0 ng/mL, the concentration at 0.5 h [12] was 0 ng/mL and the concentration at 1 h [11] was 0 ng/mL. It also gave a concentration at 1 h [12] of 0 ng/mL, a concentration at 2 h [11] of 0 ng/mL and a concentration at 2 h [12] of 0 ng/mL. The concentration at 4 h [11] was 0.4 ng/mL, the concentration at 4 h [12] was 0 ng/mL and the concentration at 6 h [11] was 0.6 ng/mL. It also gave a concentration at 6 h [12] of 0 ng/mL, a concentration at 8 h [11] of 0.1 ng/mL and a concentration at 8 h [12] of 0 ng/mL. It also gave a concentration at 0.5 h [13] of 0 ng/mL, a concentration at 0.5 h [14] of 0 ng/mL and a concentration at 1 h [13] of 0 ng/mL. For the same compound, the concentration at 1 h [14] was 0 ng/mL, the concentration at 2 h [13] was 0.4 ng/mL and the concentration at 2 h [14] was 0 ng/mL. It also gave a concentration at 4 h [13] of 1.3 ng/mL, a concentration at 4 h [14] of 1.7 ng/mL and a concentration at 6 h [13] of 1.8 ng/mL. For the same compound, the concentration at 6 h [14] was 2 ng/mL, the concentration at 8 h [13] was 1.6 ng/mL and the concentration at 8 h [14] was 1.6 ng/mL. The AUC(0-t) [15] was 2.4 ng·h/mL, the Cmax [15] was 1.4 ng/mL and the AUC(0-t) [16] was 1.6 ng·h/mL. It also gave a Cmax [16] of 1.4 ng/mL, an MRT [15] of 5.2 h and a Tmax [15] of 5 h. For the same compound, the MRT [16] was 5.3 h, the Tmax [16] was 5 h and the AUC(0-t) [17] was 8.1 ng·h/mL. It also gave a Cmax [17] of 2.4 ng/mL, an AUC(0-t) [18] of 9.6 ng·h/mL and a Cmax [18] of 2.5 ng/mL. For the same compound, the MRT [17] was 5.7 h, the Tmax [17] was 6.1 h and the MRT [18] was 5.8 h. The Tmax [18] was 6 h, the “number of positive plasma samples” value (of 504 plasma samples from 15 participants after oral Δ8-THCV) was 49 and the “concentration in representative plasma sample” value (one subject after oral Δ8-THCV in MCT oil, Figure A1) was 1.4 ng/mL.
